Values joined by “and” are separate entries in the source; they are usually repeats but may differ in a detail not shown here. Equal entries are not always repeated. Where two headings read alike, the source gives them in different places.
How the values were obtained:
[1] = system: human KB-8511 epidermoid carcinoma; assay type: in vivo, female BALB/c nude mice; conditions: for % Body Weight Change / D Body Weight / D Tumor Volume (mm^3): mean ± SEM
Method: The human epidermal (mouth) carcinoma cell line KB-8511 (a P-gp over-expressing cell line derived from the epidermoid (mouth) KB-31 carcinoma cell line) is obtained from Dr. R. M. Baker, Roswell Park Memorial Institute (Buffalo, N.Y., USA) (for description see Akiyama et al., Somat. Cell. Mol. Genetics 11, 117-126 (1985) and Fojo A., et al., Cancer Res. 45, 3002-3007 (1985)) and is cultured as previously described (Meyer, T., et al., Int. J. Cancer 43 851-856 (1989)).
(§1) Female or male BALB/c nu/nu (nude) mice are kept under sterile conditions (10 to 12 mice per Type III cage) with free access to food and water. Mice weigh between 20 and 25 grams at the time of tumor implantation. Tumors are established by subcutaneous injection of cells (minimum 2×10^6 cells in 100 μl PBS or medium) in carrier mice (4-8 mice per cell line). The resulting tumors are serially passaged for a minimum of three consecutive transplantations prior to start of treatment. Tumor fragments (approx. 25 mg) are implanted s.c. into the left flank of animals with a 13-gauge trocar needle while the mice are exposed to Forene (Abbott, Switzerland) anesthesia.
(§2) Tumor growth and body weights are monitored once or twice weekly. All treatments are administered intravenously (i.v.) and are initiated when a mean tumor volume of approximately 100 to 250 mm^3 is attained, depending upon the tumor type. Tumor volumes are determined using the formula […] (see Cancer Chemother. Pharmacol. 24:148-154, [1989]). Treatments with epothilone B vary the dose and the frequency of administration. Comparator agents are administered according to previously determined optimal treatment regimens. In addition to presenting changes in tumor volumes over the course of treatment, antitumor activity is expressed as T/C % (mean increase of tumor volumes of treated animals divided by the mean increase of tumor volumes of control animals multiplied by 100). Tumor. regression (%) represents the smallest mean tumor volume compared to the mean tumor volume at the start of treatment, according to the formula Regression (%)=(1−Vend/Vstart)×100(Vend=final mean tumor volume, Vstart=mean tumor volume at the start of treatment. Any animals in which the tumor has reached a size exceeding approximately 1.5 to 2.5 cm^3 are sacrificed. Details can be found below.

[2] = system: human COLO 205 colon tumors; assay type: in vivo, female BALB/c nude mice; conditions: 4 mg/kg, day 32
Method: as §1, §2

Q: Which results are given for `C/C(=C\c1csc(C)n1)[C@@H]1C[C@@H]2O[C@]2(C)CCC[C@H](C)[C@H](O)[C@@H](C)C(=O)C(C)(C)[C@@H](O)CC(=O)O1` [epothilone B]?
A: Regression ([1]; 1 mg/kg, i.v. once per week): none; Survival (No. alive/total) ([1]; 1 mg/kg, i.v. once per week): 8/8; T/C ([1]; 1 mg/kg, i.v. once per week, final): 81%; % Body Weight Change ([1]; 1 mg/kg, i.v. once per week): 12 ± 1%; D Body Weight ([1]; 1 mg/kg, i.v. once per week): 2.6 ± 0.3 g; D Tumor Volume (mm^3) ([1]; 1 mg/kg, i.v. once per week): 1620 ± 290 mm^3; Survival (No. alive/total) ([1]; 2 mg/kg, i.v. once per week): 8/8; T/C ([1]; 2 mg/kg, i.v. once per week, final): 14%; % Body Weight Change ([1]; 2 mg/kg, i.v. once per week): 5 ± 2%; D Body Weight ([1]; 2 mg/kg, i.v. once per week): 1.1 ± 0.4 g; D Tumor Volume (mm^3) ([1]; 2 mg/kg, i.v. once per week): 289 ± 204 mm^3; mice with undetectable tumors at the end of the experiment ([1]; 2 mg/kg/week): ⅛; Survival (No. alive/total) ([1]; 4 mg/kg, i.v. once on day 13): 8/8; T/C ([1]; 4 mg/kg, i.v. once on day 13, final): 24%; % Body Weight Change ([1]; 4 mg/kg, i.v. once on day 13): 3 ± 2%; D Body Weight ([1]; 4 mg/kg, i.v. once on day 13): 0.6 ± 0.6 g; D Tumor Volume (mm^3) ([1]; 4 mg/kg, i.v. once on day 13): 484 ± 103 mm^3; Regression ([1]; 4 mg/kg, i.v. once on day 13, transient, day 25 post transplantation): −51%; Survival (No. alive/total) ([1]; 4 mg/kg, i.v. once per week): 8/8; T/C ([1]; 4 mg/kg, i.v. once per week (days 13, 21 and 27)): Regression; % Body Weight Change ([1]; 4 mg/kg, i.v. once per week): −5±7% and −5 ± 3%; D Body Weight ([1]; 4 mg/kg, i.v. once per week): -1.1 ± 0.4 g; D Tumor Volume (mm^3) ([1]; 4 mg/kg, i.v. once per week): −107 ± 14 mm^3; mice with undetectable tumors at the end of the experiment ([1]; 4 mg/kg/week): ⅝; T/C ([2]; i.v. every 7 days (days 14, 21, 28)): Regressions; % Body Weight Change ([2]; i.v. every 7 days): −18 ± 1%; Regression ([2]; i.v. every 7 days): −87%; Survival (No. alive/total) ([2]; i.v. every 7 days): 5/7; Δ Body Weight ([2]; i.v. every 7 days): -4.0 ± 0.2 g; Δ Tumor Volume (mm^3) ([2]; i.v. every 7 days): −83 ± 7 mm^3; T/C ([2]; i.v. every 14 days (days 14 and 28)): Regressions; % Body Weight Change ([2]; i.v. every 14 days): −4 ± 4%; Regression ([2]; i.v. every 14 days): −69%; Survival (No. alive/total) ([2]; i.v. every 14 days): 7/7; Δ Body Weight ([2]; i.v. every 14 days): -1.1 ± 1.0 g; Δ Tumor Volume (mm^3) ([2]; i.v. every 14 days): −62 ± 7 mm^3; % Body Weight Change ([2]; i.v. once): 9 ± 1%; Regression ([2]; i.v. once): −66%; Survival (No. alive/total) ([2]; i.v. once): 5/7; T/C ([2]; i.v. once): Regressions; Δ Body Weight ([2]; i.v. once): 2.0 ± 0.1 g; Δ Tumor Volume (mm^3) ([2]; i.v. once): −58 ± 11 mm^3

— patent US7875601B2, “Cancer treatment with epothilones” (Novartis AG, priority 1998, dated 2011)
